According to patent publication US9700603B2, “Use of antidotes to coagulation inhibitors indicated in the prevention or treatment of thromboembolic pathologies” (LABORATOIRE FRANCAIS DU FRACTIONNEMENT ET DES …, priority 2013, dated 2017):

How the values were obtained:
Type in all cases: biochemical
[1] = tested on: thrombin generation in normal plasma pool; assay: Thrombin generation test (TGT Fluoroskan), extrinsic pathway, TF 1 pM / PL 4 μM
Experimental: The stock solution of rivaroxaban at 436 μg/mL is diluted in 5% DMSO in order to obtain intermediate concentrations which, added to the NPP (Normal Pool Plasma), give final concentrations of rivaroxaban in μg per mL of plasma.
(§1) The thrombin generation test consists of activating coagulation ex vivo either using a mixture of tissue factor and phospholipids, or using cephalin and then measuring the concentration of thrombin generated over time.
(§2) The reaction is started by the addition of 20 μL of Fluca-kit (substrate+CaCl2) which constitutes the start of the measurement of the appearance of thrombin. The appearance of fluorescence is measured on a fluorometer of the Fluoroskan Ascent type (ThermoLabsystems) at an excitation wavelength of 390 nm and emission wavelength of 460 nm. The thrombinograms (curves representing the intensity of fluorescence as a function of time) are then analyzed using the Thrombinoscope™ software which converts the fluorescence value to nM of thrombin by comparative calculation.

normal plasma pool [2] = assay: aPTT with PTT-A; details: rivaroxaban 0.35 μg/mL in PNP, no FXa
[3] = tested on: thrombin generation in normal plasma pool; assay: Thrombin generation test (CAT), intrinsic pathway, cephalin alone
Experimental: as §1, §2
The reagents, the automated equipment and the experimental protocol are identical to those described in Example 1.

normal plasma pool [4] = assay: Prothrombin time (PT) with RecombiPlastin
[5] = tested on: thrombin generation in normal plasma; assay: Thrombin generation (TGT) induced by cephalin
Experimental: A series of similar experiments is carried out by inducing the initiation of coagulation by cephalin. The series of preliminary experiments mimics the extrinsic activation of coagulation. This second series of experiments mimics the intrinsic activation of coagulation. The presence of FXa in an increasing quantity in normal plasma (●) […] the speed of appearance of thrombin without changing the total quantity of thrombin generated (FIG. 7, Table II). The speed of appearance of the thrombin is correlated with the dose of FXa added. Shorter times to peak are obtained in the presence of FXa.
The effect of FXa following the induction of thrombin generation by cephalin is then measured in the presence of Rivaroxaban at 0.35 μg/ml (FIG. 8, Table II). […] The presence of FXa in an increasing concentration makes it possible to increase the quantity of thrombin generated in a dose-dependent manner, as well as to reduce the time to peak. A maximum quantity of thrombin is obtained in the case of a concentration comprised between 0.125 and 0.25 μg/ml.

[6] = tested on: thrombin generation in normal plasma; assay: Thrombin generation (TGT) induced by tissue factor (0.5 pM)
Experimental: The effect of an overdose of FXa in normal plasma was assessed by measuring thrombin generation (TGT) following induction by tissue factor (0.5 pM) (FIG. 5, Table I). Doses of 0.03 μg/ml to 0.5 μg/ml of FXa were compared. The quantity of thrombin generated depends on the dose of FXa added.
A similar experiment was repeated in the presence of a therapeutic dose of 0.35 μg/ml of Rivaroxaban (FIG. 6, Table I). […] On the other hand, a correction of thrombin generation is obtained starting from 0.06 μg/ml (▪) up to a dose of 0.25 μg/ml (▴).

[7] = tested on: thrombin generation in normal plasma pool; assay: Thrombin generation test (TGT Fluoroskan), extrinsic pathway, TF 5 pM / PL 4 μM; details: rivaroxaban 0.35 μg/mL in PNP, no FXa
Experimental: as §1, §2
The reagents, the automaton and the experimental protocol are identical to those described in Example 1. […]

[8] = rivaroxaban 0.5 μg/mL in PNP, no FX (Table 2)
[9] = rivaroxaban 0.5 μg/ml in PNP, no FX (Table 1)
[10] = rivaroxaban 0.35 μg/ml in PNP, no FX
[11] = Unicalibrator + 0.35 μg/ml Rivaroxaban, no hFXa

SMILES: O=C(NC[C@H]1CN(c2ccc(N3CCOCC3=O)cc2)C(=O)O1)c1ccc(Cl)s1 [rivaroxaban]
- effect on ability to generate thrombin from normal plasma ([1]; 0.5 μg/mL of Rivaroxaban, activation by tissue factor and phospholipids): completely destroys the ability to generate thrombin
- LT (lag time) [1, 8]: 30.59 min
- Peak [1, 8]: 6.83 nM
- TTP (time to peak) [1, 8]: 58.81 min
- mVRI (mean velocity rate index) [1, 8]: 0.24 nM/min
- LT (lag time) [1, 9]: 25.5 min
- Peak [1, 9]: 7.42 nM
- TTP (time to peak) [1, 9]: 49.33 min
- mVRI (mean velocity rate index) [1, 9]: 0.31 nM/min
- aPTT with PTT-A (normal plasma pool [2]): 50.5 s
- effect on ability to generate thrombin from normal plasma ([3]; 0.35 μg/mL of Rivaroxaban, activation with Cephalin): completely destroys the ability to generate thrombin
- ETP (endogenous thrombin potential) [3, 10]: 230.5 nM·min
- LT (lag time) [3, 10]: 48.17 min
- Peak [3, 10]: 8.49 nM
- ST (start time) [3, 10]: 116 min
- TTP (time to peak) [3, 10]: 54 min
- mVRI (mean velocity rate index) [3, 10]: 1.46 nM/min
- PT with RecombiPlastin 2G (ISI: 1.0) (normal plasma pool [4]; rivaroxaban 0.35 μg/mL in PNP, no FXa): 26 s
- PT (RecombiPlastin ISI: 1.0) (normal plasma pool [4]; rivaroxaban 0.5 μg/ml in PNP, no FX): 32.5 s
- effect on thrombin generation induced by cephalin ([5]; Rivaroxaban at 0.35 μg/ml): completely inhibits thrombin generation
- ETP [5, 11]: 0 nM
- Peak [5, 11]: 0 nM
- ttPeak [5, 11]: 0 min
- reduction of thrombin generation versus untreated plasma ([6]; 0.35 μg/ml of Rivaroxaban): approximately 75%
- Lag time [6, 11]: 10.17 min
- Peak [6, 11]: 10.69 nM
- ttPeak [6, 11]: 20.5 min
- ETP (endogenous thrombin potential) [7]: 772 nM·min
- LT (lag time) [7]: 11.11 min
- Peak [7]: 31.32 nM
- ST (start time) [7]: 67 min
- TTP (time to peak) [7]: 25.33 min
- mVRI (mean velocity rate index) [7]: 2.20 nM/min
